Structures can show the parent of a compound that is named as a salt.
Experiments:
[1] = biological target: T1, Human PDGFRα, cytoplasmic domain (GST-PDGFRα) (Homo sapiens, UniProt P16234); assay: Human PDGFRα biochemical inhibition assay (off-chip Mobility Shift Assay)
T1 construct: made in house

[2] = biological target: T2, Human PDGFRβ, cytoplasmic domain (GST-PDGFRβ) (Homo sapiens, UniProt P09619); assay: Human PDGFRβ biochemical inhibition assay (off-chip Mobility Shift Assay)
T2 construct: made in house
Outline: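 GST-tagged cytoplasmic domain (aa 557-1106) from baculovirus was incubated 1 h at room temperature with compound, CSKtide, ATP at Km and Mg²⁺ in HEPES buffer, pH 7.5. Phosphorylated and unphosphorylated peptide were separated by off-chip mobility shift, and the product ratio P/(P+S) gave percent inhibition.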

T1 sequence (P16234 550-1089 T674I): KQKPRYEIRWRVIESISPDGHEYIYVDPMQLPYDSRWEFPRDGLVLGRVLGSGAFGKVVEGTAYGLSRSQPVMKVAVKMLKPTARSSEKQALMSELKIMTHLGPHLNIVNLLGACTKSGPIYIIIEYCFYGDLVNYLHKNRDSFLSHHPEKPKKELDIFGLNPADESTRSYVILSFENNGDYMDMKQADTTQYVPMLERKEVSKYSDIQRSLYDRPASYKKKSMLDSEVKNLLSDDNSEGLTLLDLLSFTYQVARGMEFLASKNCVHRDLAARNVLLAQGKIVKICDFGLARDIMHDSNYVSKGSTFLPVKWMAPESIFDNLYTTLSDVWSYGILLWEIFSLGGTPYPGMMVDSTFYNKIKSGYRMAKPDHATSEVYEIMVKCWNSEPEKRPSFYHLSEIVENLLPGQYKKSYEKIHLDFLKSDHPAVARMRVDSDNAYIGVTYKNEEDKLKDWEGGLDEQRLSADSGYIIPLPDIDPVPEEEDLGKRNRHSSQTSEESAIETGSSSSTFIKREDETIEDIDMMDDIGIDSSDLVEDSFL
T2 sequence (P09619 with tags, fused parts or gaps): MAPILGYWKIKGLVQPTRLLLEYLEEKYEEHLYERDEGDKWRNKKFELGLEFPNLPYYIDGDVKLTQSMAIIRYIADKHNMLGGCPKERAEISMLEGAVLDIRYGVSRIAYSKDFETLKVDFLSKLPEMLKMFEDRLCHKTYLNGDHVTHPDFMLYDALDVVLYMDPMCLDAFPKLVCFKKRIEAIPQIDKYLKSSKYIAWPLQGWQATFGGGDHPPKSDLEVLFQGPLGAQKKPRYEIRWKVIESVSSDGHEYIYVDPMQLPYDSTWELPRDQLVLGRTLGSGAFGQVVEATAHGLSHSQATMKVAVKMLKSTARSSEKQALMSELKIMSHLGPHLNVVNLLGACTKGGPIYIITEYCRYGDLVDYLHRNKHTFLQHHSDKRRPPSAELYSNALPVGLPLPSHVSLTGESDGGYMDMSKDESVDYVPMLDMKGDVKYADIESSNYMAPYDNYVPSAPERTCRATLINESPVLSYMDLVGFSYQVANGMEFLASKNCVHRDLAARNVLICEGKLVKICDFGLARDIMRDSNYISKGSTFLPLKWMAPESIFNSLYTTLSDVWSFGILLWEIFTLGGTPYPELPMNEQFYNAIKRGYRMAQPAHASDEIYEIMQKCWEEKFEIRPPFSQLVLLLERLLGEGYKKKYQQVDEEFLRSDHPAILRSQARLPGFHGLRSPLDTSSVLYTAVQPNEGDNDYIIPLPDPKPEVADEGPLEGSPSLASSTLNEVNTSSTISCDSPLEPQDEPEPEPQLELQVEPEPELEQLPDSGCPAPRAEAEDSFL

Row | IC50 [1] [nM] | IC50 [2] [nM] | SMILES
1 | < 300 | < 300 | C[C@H](Nc1cnc2cnn(C)c2n1)c1cccc(NC(=O)c2cnn(C(F)F)c2)c1 [Compound 149, (S)-1-(difluoromethyl)-N-(3-(1-((1-methyl-1H-pyrazolo[3,4-b]pyrazin-6-yl)amino)ethyl)phenyl)-1H-pyrazole-4-carboxamide]
2 | 300 to 1000 | 300 to 1000 | C[C@H](Nc1cnc2[nH]cc(-c3cnn(C)c3)c2n1)c1cccc(NC(=O)c2cc(C(F)(F)F)nn2C)c1 [Compound 584, (S)-1-methyl-N-(3-(1-((7-(1-methyl-1H-pyrazol-4-yl)-5H-pyrrolo[2,3-b]pyrazin-2-yl)amino)ethyl)phenyl)-3-(trifluoromethyl)-1H-pyrazole-5-carboxamide]
3 | < 300 | 300 to 1000 | Cc1cc(C(=O)Nc2cccc([C@H](C)Nc3cnc4cnn(C)c4n3)c2)ccc1C(=O)OCC(C)C [Compound 263, isobutyl (S)-2-methyl-4-((3-(1-((1-methyl-1H-pyrazolo[3,4-b]pyrazin-6-yl)amino)ethyl)phenyl)carbamoyl)benzoate]
4 | < 300 | < 300 | Cc1cncc(C(=O)Nc2cccc([C@H](C)Nc3cnc4ccccc4n3)c2)c1 [Compound 4, (5)-5-methyl-N-(3-(1-(quinoxalin-2-ylamino)ethyl)phenyl)nicotinamide trifluoroacetate]
5 | < 300 | < 300 | CCOc1ccc(C(=O)Nc2cccc([C@H](C)Nc3cnc4cnn(C)c4n3)c2)cc1C [Compound 196, (S)-4-ethoxy-3-methyl-N-(3-(1-((1-methyl-1H-pyrazolo[3,4-b]pyrazin-6-yl)amino)ethyl)phenyl)benzamide]
6 | < 300 | 300 to 1000 | CCn1cc2ncc(N[C@@H](C)c3cccc(NC(=O)Cc4ccc(Cl)c(F)c4)c3)nc2n1 [Compound 627, (S)-2-(4-chloro-3-fluorophenyl)-N-(3-(1-((2-ethyl-2H-pyrazolo[3,4-b]pyrazin-6-yl)amino)ethyl)phenyl)acetamide]
7 | 300 to 1000 | 300 to 1000 | Cc1cncc(C(=O)Nc2cccc([C@H](C)Nc3cnc4[nH]cnc4n3)c2)c1 [Compound 23, (S)—N-(3-(1-((1H-imidazo[4,5-b]pyrazin-5-yl)amino)ethyl)phenyl)-5-methylnicotinamide]
8 | < 300 | < 300 | C[C@H](Nc1cnc2cnn(C)c2n1)c1cccc(NC(=O)c2ccc(C3CC3)s2)c1 [Compound 136, (S)-5-cyclopropyl-N-(3-(1-((1-methyl-1H-pyrazolo[3,4-b]pyrazin-6-yl)amino)ethyl)phenyl)thiophene-2-carboxamide]
9 | < 300 | < 300 | COc1ccc(-n2ncc3ncc(N[C@@H](C)c4cccc(NC(=O)c5cncc(C)c5)c4)nc32)cc1OC [Compound 185, (S)-N-(3-(1-((1-(3,4-dimethoxyphenyl)-1H-pyrazolo[3,4-b]pyrazin-6-yl)amino)ethyl)phenyl)-5-methylnicotinamide]
10 | < 300 | < 300 | CCn1cc2ncc(N[C@@H](C)c3cc(NC(=O)c4ccc(N5CCN(C)CC5)c(C)c4)ccc3F)nc2n1 [Compound 412, (S)-N-(3-(1-((2-ethyl-2H-pyrazolo[3,4-b]pyrazin-6-yl)amino)ethyl)-4-fluorophenyl)-3-methyl-4-(4-methylpiperazin-1-yl)benzamide]
11 | < 300 | < 300 | CCn1cc2ncc(N[C@@H](C)c3cc(NC(=O)Cc4cc(C)c(Cl)cn4)ccc3C)nc2n1 [Compound 696, (S)-2-(5-chloro-4-methylpyridin-2-yl)-N-(3-(1-((2-ethyl-2H-pyrazolo[3,4-b]pyrazin-6-yl)amino)ethyl)-4-methylphenyl)acetamide]
12 | 300 to 1000 | ≥ 1000 | CCn1cc2ncc(N[C@@H](C)c3cccc(NC(=O)c4ccc(N5CCOCC5)nc4)c3)nc2n1 [Compound 372, (S)-N-(3-(1-((2-ethyl-2H-pyrazolo[3,4-b]pyrazin-6-yl)amino)ethyl)phenyl)-6-morpholinonicotinamide]
13 | 300 to 1000 | ≥ 1000 | CCn1cc2ncc(N[C@@H](C)c3cccc(NC(=O)c4ccc5c(c4)CN(C)C5)c3)nc2n1 [Compound 449, (S)-N-(3-(1-((2-ethyl-2H-pyrazolo[3,4-b]pyrazin-6-yl)amino)ethyl)phenyl)-2-methylisoindoline-5-carboxamide]
14 | < 300 | < 300 | CCn1cc2ncc(N[C@@H](C)c3cccc(NC(=O)c4cnc(OC)c(C)c4)c3)nc2n1 [Compound 290, (S)-N-(3-(1-((2-ethyl-2H-pyrazolo[3,4-b]pyrazin-6-yl)amino)ethyl)phenyl)-6-methoxy-5-methylnicotinamide]
15 | < 300 | ≥ 1000 | CCn1cc2ncc(N[C@@H](C)c3cccc(NC(=O)c4ccc(C(=O)N5CC[C@@H](N)C5)c(C)c4)c3)nc2n1 [Compound 465, 4-((R)-3-aminopyrrolidine-1-carbonyl)-N-(3-((S)-1-((2-ethyl-2H-pyrazolo[3,4-b]pyrazin-6-yl)amino)ethyl)phenyl)-3-methylbenzamide]
16 | < 300 | < 300 | C[C@H](Nc1cnc2cnn(C)c2n1)c1cccc(NC(=O)c2cnc(C(F)F)s2)c1 [Compound 141, (S)-2-(difluoromethyl)-N-(3-(1-((1-methyl-1H-pyrazolo[3,4-b]pyrazin-6-yl)amino)ethyl)phenyl)thiazole-5-carboxamide]
17 | < 300 | < 300 | CCn1cc2ncc(N[C@@H](C)c3cccc(NC(=O)c4cnc5c(c4)CCC5)c3)nc2n1 [Compound 58, (S)-N-(3-(1-((2-ethyl-2H-pyrazolo[3,4-b]pyrazin-6-yl)amino)ethyl)phenyl)-6,7-dihydro-5H-cyclope3nta[6] pyridine-3-carboxamide]
18 | < 300 | < 300 | CCn1cc2ncc(N[C@@H](C)c3cccc(NC(=O)c4ccc(C#N)c(C)c4)c3)nc2n1 [Compound 331, (S)-4-cyano-N-(3-(1-((2-ethyl-2H-pyrazolo[3,4-b]pyrazin-6-yl)amino)ethyl)phenyl)-3-methylbenzamide]
19 | < 300 | 300 to 1000 | CCn1cc2ncc(N[C@@H](C)c3cc(NC(=O)c4cnc(NC)c(C)c4)ccc3F)nc2n1 [Compound 379, (S)-N-(3-(1-((2-ethyl-2H-pyrazolo[3,4-b]pyrazin-6-yl)amino)ethyl)-4-fluorophenyl)-5-methyl-6-(methylamino) nicotinamide]
20 | 300 to 1000 | ≥ 1000 | CCn1cc2ncc(N[C@@H](C)c3cccc(NC(=O)c4cnc(NC(C)=O)s4)c3)nc2n1 [Compound 370, (S)-2-acetamido-N-(3-(1-((2-ethyl-2H-pyrazolo[3,4-b]pyrazin-6-yl)amino)ethyl)phenyl)thiazole-5-carboxamide]
21 | < 300 | < 300 | Cc1cncc(C(=O)Nc2cc(F)cc([C@H](C)Nc3cnc4cnn(C)c4n3)c2)c1 [Compound 171, (S)-N-(3-fluoro-5-(1-((1-methyl-1H-pyrazolo[3,4-b]pyrazin-6-yl)amino)ethyl)phenyl)-5-methylnicotinamide]
22 | < 300 | < 300 | Cc1cncc(C(=O)Nc2cccc([C@H](C)Nc3cnc4cc(C)oc4c3)c2)c1 [Compound 22, (S)-5-methyl-N-(3-(1-((2-methylfuro[3,2-b]pyridin-6-yl)amino)ethyl)phenyl)nicotinamide]
23 | < 300 | < 300 | CCn1cc2ncc(N[C@@H](C)c3cccc(NC(=O)c4ccc(CN5CCCC(F)(F)C5)c(C)c4)c3)nc2n1 [Compound 474, (S)-4-((3,3-difluoropiperidin-1-yl)methyl)-N-(3-(1-((2-ethyl-2H-pyrazolo[3,4-b]pyrazin-6-yl)amino)ethyl)phenyl)-3-methylbenzamide]
24 | < 300 | < 300 | CCn1cc2ncc(N[C@@H](C)c3cccc(NC(=O)c4ccc(CN5CC[C@@H](F)C5)c(Cl)c4)c3)nc2n1 [Compound 464, 3-chloro-N-(3-((S)-1-((2-ethyl-2H-pyrazolo[3,4-b]pyrazin-6-yl)amino)ethyl)phenyl)-4-(((R)-3-fluoropyrrolidin-1-yl)methyl) benzamide]
25 | < 300 | < 300 | Cc1cncc(C(=O)Nc2cccc([C@H](C)Nc3cnc4cn(CC5CC5)nc4n3)c2)c1 [Compound 275, (S)-N-(3-(1-((2-(cyclopropylmethyl)-2H-pyrazolo[3,4-b]pyrazin-6-yl)amino)ethyl)phenyl)-5-methylnicotinamide]
26 | < 300 | 300 to 1000 | CCn1cc2ncc(N[C@@H](C)c3cccc(NC(=O)c4ccc(N5CCN(C(=O)OC(C)(C)C)CC5)nc4)c3)nc2n1 [Compound 378, tert-butyl (S)-4-(5-((3-(1-((2-ethyl-2H-pyrazolo[3,4-b]pyrazin-6-yl)amino)ethyl)phenyl)carbamoyl)pyridin-2-yl) piperazine-1-carboxylate]
27 | < 300 | 300 to 1000 | CCn1cc2ncc(N[C@@H](C)c3cc(NC(=O)Cc4ccc(C5CCC5)cn4)ccc3C)nc2n1 [Compound 669, (S)-2-(5-cyclobutylpyridin-2-yl)-N-(3-(1-((2-ethyl 2H-pyrazolo[3,4-b]pyrazin-6-yl)amino)ethyl)-4-methylphenyl) acetamide]
28 | ≥ 1000 | ≥ 1000 | CCn1cc2ncc(N[C@@H](C)c3cc(NC(=O)c4ccc(C(F)(F)F)nc4)ccc3C(F)(F)F)nc2n1 [Compound 459, (S)-N-(3-(1-((2-ethyl-2H-pyrazolo[3,4-b]pyrazin-6-yl)amino)ethyl)-4-(trifluoromethyl)phenyl)-6-(trifluoromethyl) nicotinamide]
29 | < 300 | 300 to 1000 | CCn1cc2ncc(N[C@@H](C)c3cccc(NC(=O)c4ccc(CN5CC[C@@H](O)C5)c(C)c4)c3)nc2n1 [Compound 482, N-(3-((S)-1-((2-ethyl-2H-pyrazolo[3,4-b]pyrazin-6-yl)annno)ethyl)phenyl)-4-(((R)-3-hydroxypyrrolidin-1-yl)methyl)-3-methylbenzamide]
